Test results from patent US20200246308A1, “SYNERGISTIC COMBINATIONS OF UROLITHINS A AND B FOR IMPROVING COGNITIVE CAPACITY OR COGNITIVE FUNCTION” (Natreon, Inc., priority 2018, published 2020).

Tests used:
[1] = target: T1, Rat Acetylcholinesterase-induced β-Amyloid (Aβ1-40) Aggregation (Rattus norvegicus, UniProt P37136); assay: Inhibition of AChE-induced β-amyloid peptide aggregation, ThT method; assay type: biochemical; settings: test compounds 50 μM, B:A in μM, ThT fluorescence, 48 h
T1 sequence (P37136 32-614): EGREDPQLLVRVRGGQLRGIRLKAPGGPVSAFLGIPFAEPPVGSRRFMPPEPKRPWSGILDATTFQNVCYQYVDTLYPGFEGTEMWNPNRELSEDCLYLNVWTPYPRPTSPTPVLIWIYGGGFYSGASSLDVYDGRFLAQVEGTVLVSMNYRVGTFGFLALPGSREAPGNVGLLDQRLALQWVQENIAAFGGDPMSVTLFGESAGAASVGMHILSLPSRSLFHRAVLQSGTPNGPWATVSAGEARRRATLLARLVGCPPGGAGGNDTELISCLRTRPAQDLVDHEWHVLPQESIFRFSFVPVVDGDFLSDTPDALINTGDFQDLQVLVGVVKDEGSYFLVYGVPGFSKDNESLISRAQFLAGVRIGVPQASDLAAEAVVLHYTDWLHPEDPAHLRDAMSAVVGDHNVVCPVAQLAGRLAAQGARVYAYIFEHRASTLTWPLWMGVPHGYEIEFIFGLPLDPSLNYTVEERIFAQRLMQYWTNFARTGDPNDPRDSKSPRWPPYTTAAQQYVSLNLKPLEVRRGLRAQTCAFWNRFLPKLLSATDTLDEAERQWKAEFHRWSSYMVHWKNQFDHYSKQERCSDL
Protocol: Chemical reagents and starting materials were employed as above.
The effect of 3-OH-DBP (Urolithin B: B) and 3,8-(OH)2-DBP (Urolithin A: A) on the aggregation propensity of Aβ1-40 and (Thiofavin-T) ThT assay measurements were performed. […] Therefore, ThT assay was performed to study the effect of 3-(OH)-DBP (B) and 3,8-(OH)2-DBP (A) on the fibrillization of Aβ1-40.
The Aβ1-40 (10 μM and 30 μM) was incubated alone and independently with different concentrations of test compounds in the ratios shown in Tables 6 and 7, respectively.
2 μL of different concentrations of Aβ40 (10 and 30 μM) was incubated with 16 μL of AChE in the presence of different ratio of test compounds to obtain final concentrations of 30 or 10 μM Aβ40, […], 10, 20, 50 μM test compounds and 2 μL assay buffer ([…]). The mixture was incubated at room temperature for 24 or 48 hr in dark (Time period may be changed according to experiment).
Fluorescence intensities were obtained for Aβ40 aggregation in the presence of inhibitors, in the absence of inhibitors and the blanks or solvent control. After incubation, 178 μL of 20 μM ThT was added.
The percentage inhibition of the AChE-induced Aβ1-40 aggregation was calculated as follows.
Preparation of Aβ40Stock: Aβ40 peptide (0.25 mg) (Calbiochem, Merck) was dissolved in hexafluoro-2-propanol (HFIP, 0.2 mL) and incubated at room temperature for 1 h. HFIP was then removed by the flow of nitrogen and further dried under vacuum. The concentration of Aβ40 peptide was determined by UV-vis spectrometry (Biotek USA; Plate reader) using a molar extinction coefficient of 1450 cm^−1 M^−1 at 276 nm. HFIP-treated A1340 was then dissolved in 10 mM PBS buffer to a concentration of […] at pH 7.4. The assay was performed in triplicate and in three independent runs.

[2] = test system: scopolamine induced amnesic rat model; assay: Passive avoidance test, scopolamine induced amnesic rat model (Example 9B); assay type: in vivo, Male Wistar rats; settings: p.o. 7 days: B 50, A 50, B:A 10:50 and 50:50 mg/kg, Shilajit 25 mg/kg b.i.d; scopolamine 1 mg/kg i.p.
Protocol: The experiment was conducted in accordance with the Principles of laboratory animal care. Male Wistar rats (200-250 g) were purchased from the Central Animal House, Institute of Medical Sciences, Banaras Hindu University (BHU), Varanasi, India. Experiments on animals were approved by the Institutional Animal Ethics Committee of BHU, Varanasi, India. The animals were housed in polypropylene cages under controlled environmental conditions of temperature of 25±1° C. and 45-55% relative humidity and a 12:12 h light/dark cycle. The experimental animals had free access to commercial rat feed and water ad libitum during the experiment. Animals were acclimatized for at least one week before using them for experiments and exposed only once to the experiment.
Rats were randomly allocated into eight study groups containing six in each group (n=6), as follows:
Drug solution was freshly prepared in 0.3% CMC and administered by oral gavage once a day, for a period of 7 days. Briefly, the whole experiment was conducted for 8 days. […]
Passive avoidance (PA) test: The PA task is a fear-aggravated test used to evaluate learning and memory in rodent models of CNS disorders. […] The transfer of the animal from one compartment to another was recorded and transfer latency time (TLT) was calculated in seconds. […]

SMILES | inhibition of Aβ40 aggregation ([1]; Aβ40 30 μM) [%] | inhibition of Aβ40 aggregation ([1]; amyloid beta 10 μM) [%] | Transfer latency time (TLT), retention trial vs acquisition trial [2]
O=c1oc2cc(O)ccc2c2ccc(O)cc12 [Urolithin A, 3,8-dihydroxy-dibenzo-alpha-pyrone] | ~32 | ~35 | significant increase in TLT of retention trial in comparison to acquisition trial but less effective as compared to the vehicle treated group
O=c1oc2cc(O)ccc2c2ccccc12 [Urolithin B, 3-hydroxy-dibenzo-alpha-pyrone] | ~41 | ~50 | significant increase in TLT of retention trial in comparison to acquisition trial but less effective as compared to the vehicle treated group
